Earlier results in patent US8716506B2, “Xylitol esters and ethers applied as alternative emulsifiers, solvents, co-emulsifiers and preservative systems for pharmaceutical and cosmetic products” (priority 2008, dated 2014).

Experiments:
S. pneumoniae = settings: concentration of 5%
Streptococcus pneumoniae = settings: concentration of 5%
Haemophilus influenzae = settings: concentration of 5%

## C=O [formaldehyde, Formaldehyde (methanal)]
Clinical tests, even in concentrations of 30 ppm of free formaldehyde
  volunteers with contact hypersensitizing: 1-9%

## OC[C@@H](O)[C@H](O)[C@@H](O)CO [xylitol]
S. pneumoniae
  adherence levels in epithelial nasopharyngeal cells: reduced the adherence levels
Streptococcus pneumoniae
  growth inhibition: inhibited the growth
Haemophilus influenzae
  adherence levels in epithelial nasopharyngeal cells: reduced the adherence levels

## CC1(C)C(=O)N(CO)C(=O)N1CO [DMDM hydantoin, 1,3-Dimethylo1-5,5-dimethyl hydantoin]
De Groot and collaborators
  volunteers with hypersensitivity in contact test: 57%
